Test results as given in patent publication US9593305B2, “Differentiation of pluripotent stem cells” (Janssen Biotech, Inc., priority 2008, dated 2017).

Test system: H1 human embryonic stem cells
Assay: Analog screening with GDF-8 and growth factor/agonist pool (Example 8, Tables 7 and 8)
Format: cell-based
Design: Cell Number, % of positive control / Sox17 Expression, % of positive control: tested at 2.5 µM
Settings: for outcome in analog screening of hits from primary screening: 2.5 μM with GDF-8 and growth factor/agonist pool
In short: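 H1 hESC clusters, washed free of growth factors, fed on alternate days over 4 days with DMEM:F12, 0.5% FCS, 2.5 μM compound, 25 ng/ml GDF-8 plus a 50 ng/ml growth-factor pool. Fixed cells immunostained for SOX17 and imaged; total SOX17 intensity normalised to positive control.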

[1] = EGF, FGF, PDGF-A, VEGF, PDGF-D, muscimol, GDF8
[2] = Plate 2, compound + EGF, FGF, PDGF-A, VEGF, PDGF-D, muscimol, GDF8
[3] = Plate 2, compound + EGF, FGF, PDGF-A, VEGF, PDGF-D, muscimol, GDF8, positive control Activin A/Wnt3a
[4] = Plate 1, compound + EGF, FGF, PDGF-A, VEGF, PDGF-D, muscimol, GDF8
[5] = Plate 1, compound + EGF, FGF, PDGF-A, VEGF, PDGF-D, muscimol, GDF8, positive control Activin A/Wnt3a
[6] = Table 8: hits with greater than 25% activity of the positive control, with GDF-8 and growth factors/agonists

SMILES | Cell Number, % of positive control [1] [%] | Cell Number, Average Total Cell Number [1] | Sox17 Expression, % of positive control [1] [%] | Sox17 Expression, Average Total Intensity [1] | Cell Number, Average Total Cell Number [2] | Sox17 Expression, Average Total Intensity [2] | Cell Number, % of positive control [3] | Sox17 Expression, % of positive control [3] | Cell Number, Average Total Cell Number [4] | Sox17 Expression, Average Total Intensity [4] | Cell Number, % of positive control [5] | Sox17 Expression, % of positive control [5] | Cell Number, % of positive control [6] | Sox17 Expression, % of positive control [6] | Sox17 Expression, Average Total Intensity [6] | outcome in analog screening of hits from primary screening
CN1CCC(=O)NCCCc2cncc(c2)-c2ncnc(n2)Nc2cccc(c2)C1 [Compound 19, 14-Methyl-3,5,7,14,18,24,28-heptaazatetracyclo[20.3.1.1˜2,6˜0.1˜8,12˜]octacosa-1(26), 2(28), 3,5,8(27), 9,11,22,24-nonaen-17-one] | 58.2 | 7799 | 27.2 | 6.82E+07 | 8425 | 1.19E+08 | 53.3 % of positive control | 41.6 % of positive control |  |  |  |  |  |  |  | 
CN1CCC(=O)NCCCNc2cccc(c2)-c2ncnc(n2)Nc2cccc(c2)C1 [Compound 21, 14-Methyl-3,5,7,14,18,22,29-heptaazatetracyclo[21.3.1.1˜2,6˜0.1˜8,12˜]nonacosa-1(27), 2(29), 3,5,8(28), 9,11,23,25-nonaen-17-one] |  |  |  |  |  |  |  |  | 12640 | 1.65E+08 | 94.4 % of positive control | 65.9 % of positive control | 94.4 % of positive control | 65.9 % of positive control | 1.65E+08 | 
O=C1CCN2CCN(CC2)Cc2cccc(c2)Nc2ncnc(n2)-c2cncc(c2)CCCN1 [Compound 23, 1,8,10,12,16,22,26,32-Octaazapentacyclo[24.2.2.1-3,7˜0.1˜9,13˜0.1˜14,18˜]tritriaconta-3(33), 4,6,9(32), 10,12,14(31), 15,17-nonaen-23-one] |  |  |  |  |  |  |  |  | 12165 | 2.15E+08 | 90.8 % of positive control | 86.0 % of positive control | 90.8 % of positive control | 86.0 % of positive control | 2.15E+08 | 
C=CCN1CC(=O)NCCCc2cncc(c2)-c2ncnc(n2)Nc2cccc(c2)C1 [Compound 40, 14-Prop-2-en-1-yl-3,5,7,14,17,23,27-heptaazatetracyclo[19.3.1.1˜2.6˜0.1˜8,12˜]heptacosa-1(25), 2(27), 3,5,8(26), 9,11,21,23-nonaen-16-one] |  |  |  |  | 4049 | 8.23E+07 | 25.6 % of positive control | 28.8 % of positive control |  |  |  |  | 25.6 % of positive control | 28.8 % of positive control | 8.23E+07 | 
O=C1CCN2CCN(CC2)Cc2cc(Cl)cc(c2)Nc2ncnc(n2)-c2cncc(c2)CCCN1 [Compound 34, 5-Chloro-1,8,10,12,16,22,26,32-octaazapentacyclo[24.2.2.1˜3.7˜0.1˜9,13˜0.1˜14.18˜]tritriaconta-3(33), 4,6,9(32), 10,12,14(31), 15,17-nonaen-23-one] |  |  |  |  | 8907 | 9.99E+07 | 56.3 % of positive control | 35.0 % of positive control |  |  |  |  | 56.3 % of positive control | 35.0 % of positive control | 9.99E+07 | repeated as hits
O=C1NCCCc2cncc(c2)-c2ncnc(n2)Nc2cccc(c2)CN2CCCC1C2 (centres unmarked) [Compound 17, 3,5,7,14,20,26,31-Heptaazapentacyclo[22.3.1.1-2,6˜1˜8,12˜1˜14,18˜]hentriaconta-1(28), 2(31), 3,5,8(30), 9,11,24,26-nonaen-19-one] | 59.6 | 7988 | 45.0 | 1.13E+08 |  |  |  |  |  |  |  |  |  |  |  | 
CCN1CC(=O)NCCCc2cc(ccc2F)-c2ncnc(n2)Nc2cc(Cl)cc(c2)C1 [Compound 25, 10-Chloro-14-ethyl-22-fluoro-3,5,7,14,17,27-hexaazatetracyclo[19.3.1.1˜2,6˜0.1˜8,12˜]heptacosa-1(25), 2(27), 3,5,8(26), 9,11,21,23-nonaen-16-one] |  |  |  |  | 6571 | 7.60E+07 | 41.6 % of positive control | 26.6 % of positive control |  |  |  |  | 41.6 % of positive control | 26.6 % of positive control | 7.60E+07 | 
O=C1CCN2CCN(CC2)Cc2cccc(c2)Nc2ncnc(n2)-c2ccnc(c2)NCCCN1 [Compound 13, 1,8,10,12,17,19,23,27,33-Nonaazapentacyclo[25.2.2.1˜3,7˜0.1˜9.13˜1˜14.18˜]tetratriaconta-3(34), 4,6,9(33), 10,12,14(32), 15,17-nonaen-24-one] | 52.6 | 7045 | 28.8 | 7.22E+07 | 9123 | 1.13E+08 | 57.7 % of positive control | 39.7 % of positive control |  |  |  |  |  |  |  | 
CCN1CC(=O)NCCCc2cccc(c2)-c2ncnc(n2)Nc2cccc(c2)C1 [Compound 15, 14-Ethyl-3,5,7,14,17,27-hexaazatetracyclo[19.3.1.1˜2,6˜1-8.12˜]heptacosa-1(25), 2(27), 3,5,8(26), 9,11,21,23-nonaen-16-one] | 45.8 | 7234 | 27.8 | 7.95E+07 |  |  |  |  | 8448 | 8.64E+07 | 63.1 % of positive control | 34.5 % of positive control |  |  |  | 
CN1CCCC(=O)NCCCc2cncc(c2)-c2ncnc(n2)Nc2cccc(c2)C1 [Compound 20, 14-Methyl-3,5,7,14,19,25,29-heptaazatetracyclo[21.3.1.1˜2,6˜0.1˜8,12˜]nonacosa-1(27), 2(29), 3,5,8(28), 9,11,23,25-nonaen-18-one] | 70.4 | 9434 | 59.1 | 1.48E+08 | 7346 | 8.90E+07 | 46.5 % of positive control | 31.2 % of positive control | 9434 | 1.48E+08 | 70.4 % of positive control | 59.1 % of positive control |  |  |  | 
CCN1CC(=O)NCCCc2cc(ccn2)-c2ncnc(n2)Nc2cc(Cl)cc(c2)C1 [Compound 14, 10-Chloro-14-ethyl-3,5,7,14,17,22,27-heptaazatetracyclo[19.3.1.1˜2,6˜1˜8,12˜]heptacosa-1(25), 2(27), 3,5,8(26), 9,11,21,23-nonaen-16-one] | 53.5 | 8464 | 29.1 | 8.33E+07 |  |  |  |  | 9344 | 1.23E+08 | 69.8 % of positive control | 49.0 % of positive control |  |  |  | 
CCN1CC(=O)NCCCc2cncc(c2)-c2ncnc(n2)Nc2cc(Cl)cc(c2)C1 [Compound 35, 10-Chloro-14-ethyl-3,5,7,14,17,23,27-heptaazatetracyclo[19.3.1.1˜2,6˜0.1˜8,12]Theptacosa-1(25), 2(27), 3,5,8(26), 9,11,21,23-nonaen-16-one] |  |  |  |  | 10461 | 1.59E+08 | 66.2 % of positive control | 55.7 % of positive control |  |  |  |  | 66.2 % of positive control | 55.7 % of positive control | 1.59E+08 | repeated as hits
